Values belong to the compound of their own block, whether it stands above or below them. Active and inactive are the calls of the source. The calls are words filed in the database; no cut-off is given here.
Key:
[1] = test system: A549; assay: Cytotoxicity against human A549 cells assessed as proportion of live cells at 10 nM incubated for 24 hrs by PI-staining based flow cytometry analysis (reference value: 90.1 to 90.2%); assay type: functional
[2] = test system: A549; assay: Cytotoxicity against human A549 cells assessed as proportion of live cells at 20 nM incubated for 24 hrs by PI-staining based flow cytometry analysis (reference value: 90.1 to 90.2%); assay type: functional
[3] = Inhibition of goat brain tubulin polymerization incubated for 10 mins followed by GTP addition and measured for 35 mins by spectrophotometric analysis; assay type: tissue-based, Capra hircus
[4] = Aqueous stability of the compound in PBS assessed as absorbance at 40 uM measured at pH 7.2 after 20 days by spectrophotometer analysis; assay type: physicochemical; settings: time 20 day, read-out: Stability
[5] = species: Capra hircus; assay: Binding affinity to colchicine binding site of goat brain tubulin assessed as tubulin-compound complex fluorescence intensity at 10 uM preincubated with podophyllotoxin for 30 mins followed by compound addition and measured after 30 mins by fluorescence based analysis
[6] = Binding affinity to goat brain tubulin assessed as increase in fluorescence intensity incubated for 30 mins by spectrofluorometric analysis; assay type: tissue-based, Capra hircus
[7] = species: Capra hircus; assay: Inhibition of goat brain tubulin polymerization assessed as reduction in initial rate of tubulin polymerization incubated for 10 mins followed by GTP addition and measured for 35 mins by spectrophotometric analysis; assay type: tissue-based; settings: dose 2-6 µM, time 45.0 min
[8] = test system: A549; assay: Induction of cell cycle arrest in human A549 cells assessed as accumulation of cells at G1 phase at 20 nM incubated for 12 hrs by propidium iodide/RNase-staining based flow cytometry analysis (reference value: 67 +/- 11%); assay type: functional
[9] = test system: A549; assay: Cytotoxicity against human A549 cells assessed as proportion of dead cells at 20 nM incubated for 24 hrs by PI-staining based flow cytometry analysis (reference value: 9.8 to 9.9%); assay type: functional
[10] = test system: A549; assay: Induction of cell cycle arrest in human A549 cells assessed as accumulation of cells at S phase at 20 nM incubated for 12 hrs by propidium iodide/RNase-staining based flow cytometry analysis (reference value: 22 +/- 6%); assay type: functional
[11] = biological target: T1, Tubulin (Homo sapiens) (UniProt P68371+Q9H4B7+P0DPH7+P68366+Q13509+Q71U36+P04350+Q3ZCM7+P07437+P68363+Q9BQE3+Q6PEY2+Q13885+Q9BVA1+Q9BUF5); assay: Inhibition of tubulin polymerization in human A549 cells assessed as reduction in fluorescence intensity of microtubules at 20 nM measured after 24 hrs by Hoechst-33258 staining based immunofluorescence analysis relative to control; assay type: cell-based
[12] = Cytotoxicity against mouse L929 cells assessed as reduction in cell growth by SRB assay; assay type: toxicity, cell-based
[13] = test system: A549; assay: Induction of cell cycle arrest in human A549 cells assessed as accumulation of cells at G2/M phase at 20 nM incubated for 12 hrs by propidium iodide/RNase-staining based flow cytometry analysis (reference value: 11 +/- 4%); assay type: functional
[14] = test system: A549; assay: Induction of cell cycle arrest in human A549 cells assessed as accumulation of cells at S phase at 10 nM incubated for 12 hrs by propidium iodide/RNase-staining based flow cytometry analysis (reference value: 22 +/- 6%); assay type: functional
[15] = species: Capra hircus; assay: Binding affinity to colchicine binding site of goat brain tubulin assessed as tubulin-compound complex fluorescence intensity at 10 uM preincubated with CA-4 for 30 mins followed by compound addition and measured after 30 mins by fluorescence based analysis
[16] = biological target: T1, Tubulin (Homo sapiens); assay: Inhibition of tubulin polymerization in human A549 cells assessed as induction of mitotic spindle microtubules depolymerization at 20 nM measured after 24 hrs by Hoechst-33258 staining based immunofluorescence analysis; assay type: cell-based
[17] = species: Capra hircus; assay: Inhibition of goat brain tubulin polymerization at 3 uM incubated for 10 mins followed by GTP addition and measured for 35 mins by spectrophotometric analysis relative to control; assay type: tissue-based; settings: time 45.0 min
[18] = Antiproliferative activity against human H357 cells assessed as reduction in cell growth by SRB assay; assay type: functional, cell-based
[19] = test system: A549; assay: Antiproliferative activity against human A549 cells assessed as reduction in cell growth by SRB assay; assay type: functional, cell-based
[20] = test system: B16-F10; assay: Antiproliferative activity against mouse B16-F10 cells assessed as reduction in cell growth by SRB assay; assay type: functional, cell-based
[21] = Selectivity index, ratio of IC50 for cytotoxicity against mouse L929 cells to IC50 for antiproliferative activity against mouse B16-F10 cells; assay type: toxicity, cell-based; settings: L929 cells versus B16-F10 cells, read-out: Ratio IC50
[22] = test system: A549; assay: Induction of cell cycle arrest in human A549 cells assessed as accumulation of cells at G1 phase at 10 nM incubated for 12 hrs by propidium iodide/RNase-staining based flow cytometry analysis (reference value: 67 +/- 11%); assay type: functional
[23] = test system: MCF7; assay: Antiproliferative activity against human MCF7 cells assessed as reduction in cell growth by SRB assay; assay type: functional, cell-based
[24] = species: Capra hircus; assay: Inhibition of goat brain tubulin polymerization at 5 uM incubated for 10 mins followed by GTP addition and measured for 35 mins by spectrophotometric analysis relative to control; settings: time 45.0 min
[25] = biological target: T1, Tubulin (Homo sapiens); assay: Inhibition of tubulin polymerization in human HeLa cells assessed as induction of mitotic microtubule depolymerization at 10 to 20 nM measured after 24 hrs by Hoechst-33258 staining based immunofluorescence analysis; assay type: cell-based; settings: dose 10-20 nM
[26] = test system: A549; assay: Cytotoxicity against human A549 cells assessed as proportion of dead cells at 10 nM incubated for 24 hrs by PI-staining based flow cytometry analysis (reference value: 9.8 to 9.9%); assay type: functional
[27] = test system: HeLa; assay: Antiproliferative activity against human HeLa cells assessed as reduction in cell growth by SRB assay; assay type: functional, cell-based
[28] = test system: A549; assay: Induction of cell cycle arrest in human A549 cells assessed as accumulation of cells at G2/M phase at 10 nM incubated for 12 hrs by propidium iodide/RNase-staining based flow cytometry analysis (reference value: 11 +/- 4%); assay type: functional
[29] = species: Capra hircus; assay: Inhibition of goat brain tubulin polymerization at 0.5 uM incubated for 10 mins followed by GTP addition and measured for 35 mins by spectrophotometric analysis relative to control; settings: time 45.0 min
[30] = biological target: T1, Tubulin (Homo sapiens); assay: Inhibition of tubulin polymerization in human A549 cells assessed as reduction in fluorescence intensity of microtubules at 10 nM measured after 24 hrs by Hoechst-33258 staining based immunofluorescence analysis relative to control; assay type: cell-based
[31] = test system: HeLa; assay: Antiproliferative activity against human HeLa cells assessed as inhibition of cell growth at 25 nM measured after 24 hrs by SRB assay relative to control; assay type: functional
[32] = biological target: T1, Tubulin (Homo sapiens); assay: Inhibition of tubulin polymerization in human A549 cells assessed as induction of interphase microtubule disorganization at 20 nM measured after 24 hrs by Hoechst-33258 staining based immunofluorescence analysis; assay type: cell-based
[33] = species: Capra hircus; assay: Inhibition of goat brain tubulin polymerization at 2 uM incubated for 10 mins followed by GTP addition and measured for 35 mins by spectrophotometric analysis relative to control; settings: time 45.0 min
[34] = biological target: T1, Tubulin (Homo sapiens); assay: Inhibition of tubulin polymerization in human A549 cells assessed as induction of interphase microtubule disorganization at 10 nM measured after 24 hrs by Hoechst-33258 staining based immunofluorescence analysis; assay type: cell-based
[35] = biological target: T1, Tubulin (Homo sapiens); assay: Inhibition of tubulin polymerization in human HeLa cells assessed as induction of interphase microtubule depolymerization at 10 to 20 nM measured after 24 hrs by Hoechst-33258 staining based immunofluorescence analysis; assay type: cell-based; settings: dose 10-20 nM
[36] = test system: T47D; assay: Antiproliferative activity against human T47D cells assessed as reduction in cell growth by SRB assay; assay type: functional, cell-based
[37] = species: Capra hircus; assay: Inhibition of goat brain tubulin polymerization at 1 uM incubated for 10 mins followed by GTP addition and measured for 35 mins by spectrophotometric analysis relative to control; assay type: tissue-based; settings: time 45.0 min
[38] = test system: MDA-MB-231; assay: Antiproliferative activity against human MDA-MB-231 cells assessed as reduction in cell growth by SRB assay; assay type: functional, cell-based
[39] = Aqueous stability of the compound in PBS assessed as absorbance at 40 uM measured at pH 7.2 after 24 hrs by spectrophotometer analysis; assay type: physicochemical; settings: read-out: Stability

SMILES: COc1cc(-c2nc(N)[nH]c2-c2ccc3ccccc3n2)cc(OC)c1OC
Activity [1]: 76.7%
Activity [2]: 62.7%
IC50 [3]: 3400 nM
remaining at 480 h, 40 µM [4]: 47%
Activity [5]: inactive
Kd [6]: 5000 nM
inhibition [7]: Dose-Dependent Effect
Activity [8]: 37%
Activity [9]: 35.9%
Activity [10]: 19%
inhibition [11]: 53.2%
IC50 [12]: 69 nM
Activity [13]: 44%
Activity [14]: 20%
Activity [15]: inactive
inhibition [16]: Active
inhibition [17]: 45%
IC50 [18]: 15 nM
IC50 [19]: 12 nM
IC50 [20]: 25 nM
selectivity ratio [21]: 2.76
Activity [22]: 51%
IC50 [23]: 20 nM
inhibition [24]: 75%
inhibition [25]: Active
Activity [26]: 22%
IC50 [27]: 10 nM
Activity [28]: 29%
inhibition [29]: 8%
inhibition [30]: 23.6%
inhibition at 0.025 µM [31]: 74%
inhibition [32]: Active
inhibition [33]: 28%
inhibition [34]: Active
inhibition [35]: Active
IC50 [36]: 47 nM
inhibition [37]: 11%
IC50 [38]: 13 nM

SMILES: COc1cc(-c2nc(N)[nH]c2-c2ccnc3cc(Cl)ccc23)cc(OC)c1OC
inhibition at 0.025 µM [31]: 11%

SMILES: COc1cc(-c2nc(N)[nH]c2-c2cccc3ncccc23)cc(OC)c1OC
inhibition at 0.025 µM [31]: 27%

SMILES: COc1cc(-c2nc(N)[nH]c2-c2ccc3ccccc3c2)cc(OC)c1OC
inhibition at 0.025 µM [31]: 34%

SMILES: COc1ccc(/C=C\c2cc(OC)c(OC)c(OC)c2)cc1O [COMBRETASTATIN A4]
Activity [2]: 90.4%
Activity [8]: 65%
Activity [9]: 7.37%
Activity [10]: 18%
IC50 [12]: 117 nM
Activity [13]: 17%
IC50 [18]: 3.5 nM
IC50 [19]: 43 nM
IC50 [20]: 82 nM
IC50 [23]: 24 nM
IC50 [27]: 24 nM
inhibition at 0.025 µM [31]: 57%
IC50 [36]: 407 nM
IC50 [38]: 100 nM
remaining at 24 h, 40 µM [39]: 47%

SMILES: COc1cc(-c2nc(N)[nH]c2-c2ccc3ncccc3c2)cc(OC)c1OC
inhibition at 0.025 µM [31]: 9%

IC50 [27]: 41 nM
SMILES: COc1cc(-c2nc(N)[nH]c2-c2cncc3ccccc23)cc(OC)c1OC
inhibition at 0.025 µM [31]: 47%

SMILES: COc1cc(-c2nc(N)[nH]c2-c2cccc3cnccc23)cc(OC)c1OC
inhibition at 0.025 µM [31]: 43%

SMILES: COc1cc(-c2nc(N)[nH]c2-c2ccnc3ccccc23)cc(OC)c1OC
inhibition at 0.025 µM [31]: 7%

SMILES: COc1cc(-c2nc(N)[nH]c2-c2cnc3ccc(Cl)cc3c2)cc(OC)c1OC
inhibition at 0.025 µM [31]: 11%

SMILES: COc1cc(-c2nc(N)[nH]c2-c2cccc3cccnc23)cc(OC)c1OC
inhibition at 0.025 µM [31]: 32%

SMILES: COc1ccc2ncc(-c3[nH]c(N)nc3-c3cc(OC)c(OC)c(OC)c3)cc2c1
inhibition at 0.025 µM [31]: 30%

SMILES: COc1cc(-c2nc(N)[nH]c2-c2ccc3nc(C)ccc3c2)cc(OC)c1OC
inhibition at 0.025 µM [31]: 5%

SMILES: COc1cc(-c2nc(N)[nH]c2-c2cnc3ccc(C)cc3c2)cc(OC)c1OC
inhibition at 0.025 µM [31]: 8%

IC50 [27]: 46 nM
SMILES: COc1cc(-c2nc(N)[nH]c2-c2ccc3cnccc3c2)cc(OC)c1OC
inhibition at 0.025 µM [31]: 46%

From ChEMBL document CHEMBL5390227, “Development of QTMP: A promising anticancer agent through NP-Privileged Motif-Driven structural modulation” (Bioorg Med Chem, 2023)
